In US20050009902A1, “Remedies for pruritus” (priority 2001, published 2005):

What was measured:
Type in all cases: in vivo, guinea pig
[1] = tested on: allergic conjunctivitis models; experiment: Ocular pruritus inhibition activity to allergic conjunctivitis models; conditions: for Eye scratching inhibition rate: 0.1% (w/v) instilled twice before ovalbumin, 30 minutes, 12 eyes
Experimental: Aluminum hydroxide gel-adsorbed ovalbumin (20 μg/mL) was dissolved in a physiological saline, and the resulting solution was subconjunctivally injected into both eyes of a 4-week-old male Hartley guinea pig in 100-μL portions for active sensitization. On days 14, 16, 18, 21, 23 and 25 after the sensitization, a physiological saline containing 2.5% (w/v) ovalbumin was instilled into both eyes in 10 μL/one eye to induce allergic conjunctivitis. A physiological saline was used as a control.
Five minutes and 15 minutes (twice in total) before the instilling of ovalbumin on days 16, 18, 21, 23 and 25 after the sensitization, a suspension of 0.1% (w/v) palmidrol in a physiological saline was instilled into both eyes of the guinea pig in 10 μL/one eye.
The behavior of the guinea pig for 30 minutes after the instilling of ovalbumin on days 21, 23 and 25 after the sensitization were videotaped, and the ocular pruritus was evaluated by counting the number of eye scratchings in case of instilling palmidrol and a control. In each example, 12 eyes are used.

histamine-induced models = experiment: Ocular pruritus inhibition activity to histamine-induced models; conditions: for Number of eye scratchings: 10 μL/one eye, average, 12 eyes, control 22.8; for Number of eye scratchings / Eye scratching inhibition rate: 30 minutes after 1.0% histamine; for Eye scratching inhibition rate: vs physiological saline control
Experimental: Palmidrol was suspended in a physiological saline at a concentration of 0.1% or 0.5%(w/v), and the resulting suspension was instilled into both eyes of a 5-week-old male Hartley guinea pig in 10 μL/one eye. After 10 minutes, the palmidrol suspension at the same concentration was also instilled thereinto (twice in total). A physiological saline was used as a control.
After 5 minutes from the second instilling of palmidrol, a physiological saline containing 1.0% (w/v) histamine was instilled into both eyes of the guinea pig in 10 μL/one eye to induce eye scratching action.
The behavior of the guinea pig after administering histamine was videotaped, and the ocular pruritus was evaluated on each eye by counting actions of scratching the eye with the hind foot. The average value of the number of eye scratchings for 30 minutes after administering histamine and the eye scratching inhibition rate are shown in Table 1. In each example, 12 eyes are used.
Eye scratching inhibition rate=100−(number of eye scratchings with test compound)/(number of eye scratchings with control)×100

[2] = tested on: platelet activating factor (PAF)-induced models; experiment: Ocular pruritus inhibition activity to platelet activating factor-induced models; conditions: for Eye scratching inhibition rate: 8 eyes; for Number of eye scratchings in comparison with the controls (in words): instilled suspensions, extent depends approximately on concentration
Experimental: The ocular pruritus inhibition activity to platelet activating factor (PAF)-induced models was examined using anandamide (test compound A), indometacin morpholinylamide (test compound B) and N-(benzo[d][1,3]dioxol-5-ylmethyl)-7-methoxy-2-oxo-8-penty loxy-1,2-dihydroquinoline-3-carboxamide (test compound C).
Test compound A (50 mg/ml in EtOH) was suspended in a physiological saline at a concentration of 0.01% (w/v). Test compound B was suspended in a 1.0% Tween 80/physiological saline at a concentration of 0.001% or 0.01% (w/v). Test compound C was suspended in a 5.0% Tween 80/physiolosical saline at a concentration of 0.0001%, 0.001% or 0.01% (w/v). In this manner, the test compound suspensions were prepared.
With respect to test compounds A and B, each of the test compound suspensions was instilled into both eyes of a 5-week-old male Hartley guinea pig in 10 μL/one eye. Ten minutes later, each of the test compound suspensions was instilled thereinto at the same concentration (twice in total). With respect to test compound C, the test compound suspension was instilled into both eyes of the 5-week-old male Hartley guinea pig in 10 μL/one eye.
Subsequently, with respect to test compounds A and B, a physiological saline containing 0.1% (w/v) of the platelet activating factor was instilled in 10 μL/one eye into both eyes of the guinea pig after 5 minutes from the second instilling of the respective test compound suspensions. With respect to test compound C, the same physiological saline was instilled in 10 μL/one eye into both eyes of the guinea pig after 15 minutes from the instilling of the test compound suspension. In this manner, the eye scratching action was induced. As controls of test compounds A, B and C, a 2.0% ethanol/physiological saline, a physiological saline and a 5.0% Tween 80/physiological saline were used respectively.
The behavior of the guinea pig after instilling the platelet activating factor was videotaped, and the ocular pruritus was evaluated for each eye by counting the number of actions of scratching the eye with the hind foot. The average value of the eye scratching inhibition rate for 30 minutes after instilling the platelet activating factor is shown in Table 3. In each example, 8 eyes are used.

[3] = 0.1% (w/v) suspension instilled twice
[4] = 0.5% (w/v) suspension instilled twice
[5] = 0.01% (w/v) suspension instilled twice, 30 minutes after 0.1% PAF

## CCCCCCCCCCCCCCCC(=O)NCCO [Palmidrol, N-palmitoyl-ethanolamide]
[1]; Day 21 after sensitization
  Eye scratching inhibition rate: 41.5%
[1]; Day 23 after sensitization
  Eye scratching inhibition rate: 52.3%
[1]; Day 25 after sensitization
  Eye scratching inhibition rate: 51.7%
[1]; 0.1% instilled
  Eye scratching action in comparison with the control (in words): significantly inhibited
histamine-induced models; [3]
  Number of eye scratchings: 8.5 times
  Eye scratching inhibition rate: 62.8%
histamine-induced models; [4]
  Number of eye scratchings: 3.8 times
  Eye scratching inhibition rate: 83.2%
histamine-induced models; instilled 0.1% or 0.5%, extent depends on concentration
  Number of eye scratchings in comparison with the control (in words): markedly decreased

## COc1ccc2c(c1)c(CC(=O)N1CCOCC1)c(C)n2C(=O)c1ccc(Cl)cc1 [Test compound B, indometacin morpholinylamide]
[2]; 0.001% (w/v) suspension instilled twice, 30 minutes after 0.1% PAF
  Eye scratching inhibition rate: 38.7%
[2]; [5]
  Eye scratching inhibition rate: 52.9%
[2]
  Number of eye scratchings in comparison with the controls (in words): markedly decreased

## CCCCCOc1c(OC)ccc2cc(C(=O)NCc3ccc4c(c3)OCO4)c(=O)[nH]c12 [Test Compound C, N-(benzo[d][1,3]dioxol-5-ylmethyl)-7-methoxy-2-oxo-8-pentyloxy-1,2-dihydroquinoline-3-carboxamide]
[2]; 0.0001% (w/v) suspension instilled once, 15 minutes before 0.1% PAF, 30 minutes
  Eye scratching inhibition rate: 22.7%
[2]; 0.001% (w/v) suspension instilled once, 15 minutes before 0.1% PAF, 30 minutes
  Eye scratching inhibition rate: 34.3%
[2]; 0.01% (w/v) suspension instilled once, 15 minutes before 0.1% PAF, 30 minutes
  Eye scratching inhibition rate: 44.2%
[2]
  Number of eye scratchings in comparison with the controls (in words): markedly decreased

## CCCCC/C=C\C/C=C\C/C=C\C/C=C\CCCC(=O)NCCO [Test compound A, anandamide]
[2]; [5]
  Eye scratching inhibition rate: 40.9%
[2]
  Number of eye scratchings in comparison with the controls (in words): markedly decreased
